Measurements taken from patent US12649744B2, “N-(pyridin-2-yl)-6,7,8,9-tetrahydro-5h-5,8-epiminocyclohepta[c]pyridine-10-carboxamide derivatives and similar compounds as GPR65 modulators for the treatment of cancer” (PATHIOS THERAPEUTICS LIMITED, priority 2020, dated 2026).

Target: human recombinant GPR65 (Homo sapiens, UniProt Q8IYL9)
Assay: Human GPR65 cAMP HTRF antagonist assay
Format: cell-based
Conditions: not given
Description: The “Human GPR65 cyclic adenosine monophosphate (cAMP) Homogeneous Time Resolved Fluorescence (HTRF) antagonist assay”, or simply “cAMP assay”, as described below, can be used to measure the potency of GPR65 modulators, which is expressed as the concentration of compound required to reduce the increase in cAMP concentration upon GPR65 activation by 50% (i.e. an IC50).
Human GPR65 Cyclic Adenosine Monophosphate (cAMP) Homogeneous Time Resolved Fluorescence (HTRF) Antagonist Assay Procedure
IC50 data was obtained by the following procedure:
1321N1 human astrocytoma cells stably expressing human recombinant GPR65 (1321N1-hrGPR65 cells, EuroscreenFast) were cultured according to the vendor's instructions.
Compounds were tested for their ability to antagonise GPR65, through measuring the concentration of cytoplasmic cAMP following treatment of the cells at a pH of 7.2 to activate GPR65 signalling and addition of the compound to be tested. The extent to which the expected rise in cAMP concentration upon GPR65 activation was suppressed by the added compound is indicative of its potency. The assay was carried out according to EuroscreenFast assay methodology as follows.
On the day of the assay, test compounds were added to 384-well, low volume, white microtiter plates by acoustic dispensing. KRH buffer (5 mM KCl, 1.25 mM MgSO4, 124 mM NaCl, 25 mM HEPES, 13.3 mM Glucose, 1.25 mM KH2PO4 and 1.45 mM CaCl2) was adjusted to pH 6.5, pH 7.6 and pH 8.4 by adding NaOH. 1321N1-hGPR65 cells were rapidly thawed and diluted in KRH, pH 7.6 prior to centrifugation at 300×g for 5 min and resuspension in assay buffer (KRH, pH 7.6, supplemented with 1 mM 3-isobutyl-1-methylxanthine (IBMX) and 200 μM ethylenediaminetetraacetic acid (EDTA)). Cells were added to assay plates at a density of 2,000 cells per well in a volume of 5 μl. Assay plates were briefly centrifuged at 100×g and then incubated at room temperature for 30 min. Cells were stimulated by the addition of 5 μL KRH, pH 6.5, to achieve an assay pH of 7.2, while control wells received 5 μl KRH, pH 8.4 to achieve an assay pH of 7.9. Assay plates were briefly centrifuged at 100×g and then incubated at room temperature for 30 min.
Accumulation of cAMP was detected by cAMP HTRF kit (Cisbio). d2-labeled cAMP and cryptate-labeled anti-cAMP antibody in Lysis and Detection Buffer (Cisbio) were added to assay plates, and the plates were incubated at room temperature for 1 h. HTRF measurements were performed using a Pherastar FSX instrument. Acceptor and donor emission signals were measured at 665 nm and 620 nm, respectively, and HTRF ratios were calculated as signal665 nm/signal620nm×10^4. Data were normalised to high and low control values and fitted with 4-parameter logistic regression to determine hGPR65 IC50 values for the test compounds, which are shown in Table 1.

Sequence of human recombinant GPR65 (Q8IYL9 whole entry): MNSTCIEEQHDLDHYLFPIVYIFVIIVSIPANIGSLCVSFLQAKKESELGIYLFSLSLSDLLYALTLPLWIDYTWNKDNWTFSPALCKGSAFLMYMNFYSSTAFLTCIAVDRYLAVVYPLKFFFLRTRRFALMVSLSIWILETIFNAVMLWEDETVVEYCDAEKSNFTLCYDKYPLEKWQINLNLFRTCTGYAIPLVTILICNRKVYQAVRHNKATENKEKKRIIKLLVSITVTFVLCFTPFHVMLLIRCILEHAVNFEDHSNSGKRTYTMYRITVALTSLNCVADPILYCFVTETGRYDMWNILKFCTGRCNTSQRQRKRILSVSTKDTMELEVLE

| SMILES | IC50 |
| --- | --- |
| O=C(Nc1cncc(Cl)c1)N1C2CCC1c1ccnc(F)c1C2 (racemic) [Compound 9, (±)-N-(5-chloropyridin-3-yl)-1-fluoro-6,7,8,9-tetrahydro-5H-5,8-epiminocyclohepta-[c]pyridine-10-carboxamide] | < 500 nM |

Same assay, conditions: 1321N1-hrGPR65 cells, assay pH of 7.2, cAMP HTRF; read-out: hGPR65 IC50

| SMILES | IC50 |
| --- | --- |
| O=C(Nc1ccc2nonc2c1)N1[C@H]2CC[C@@H]1c1ccnc(F)c1C2 [Compound 35, (5R,8S)-N-(Benzo[c][1,2,5]oxadiazol-5-yl)-1-fluoro-6,7,8,9-tetrahydro-5H-5,8-epiminocyclohepta[c]pyridine-10-carboxamide] | 500 to 5000 nM |
| N#Cc1ccc(NC(=O)N2[C@H]3CC[C@@H]2c2ccnc(F)c2C3)nc1C(F)(F)F [Compound 37, (5R,8S)-N-(5-Cyano-6-(trifluoromethyl)pyridin-2-yl)-1-fluoro-6,7,8,9-tetrahydro-5H-5,8-epiminocyclohepta[c]pyridine-10-carboxamide] | 500 to 5000 nM |
| O=C(Nc1nnc(C(F)(F)F)s1)N1[C@H]2CC[C@@H]1c1ccnc(F)c1C2 [Compound 23, (5R,8S)-1-fluoro-N-(5-(trifluoromethyl)-1,3,4-thiadiazol-2-yl)-6,7,8,9-tetrahydro-5H-5,8-epiminocyclohepta[c]pyridine-10-carboxamide] | < 500 nM |
| N#Cc1ccc(NC(=O)N2[C@H]3CC[C@@H]2c2ccnc(F)c2C3)nc1 [Compound 41, (5R,8S)-N-(5-Cyanopyridin-2-yl)-1-fluoro-6,7,8,9-tetrahydro-5H-5,8-epiminocyclohepta[c]pyridine-10-carboxamide] | 500 to 5000 nM |
| O=C(Nc1cnc(Cl)c(Cl)c1)N1[C@H]2CC[C@@H]1c1c[nH]c(=O)cc1C2 [Compound 13, (6S,9R)-N-(5,6-dichloropyridin-3-yl)-3-oxo-3,5,6,7,8,9-hexahydro-2H-6,9-epiminocyclo-hepta[c]pyridine-10-carboxamide] | < 500 nM |
| O=C(Nc1nc(Cl)c(Cl)s1)N1[C@H]2CC[C@@H]1c1ccnc(F)c1C2 [Compound 30, (5R,8S)-N-(4,5-Dichlorothiazol-2-yl)-1-fluoro-6,7,8,9-tetrahydro-5H-5,8-epiminocyclohepta[c]pyridine-10-carboxamide] | < 500 nM |
| O=C(Nc1cc(Cl)c(C(F)(F)F)cn1)N1[C@H]2CC[C@@H]1c1c[nH]c(=O)cc1C2 [Compound 17, (6S,9R)-N-(4-chloro-5-(trifluoromethyl)pyridin-2-yl)-3-oxo-3,5,6,7,8,9-hexahydro-2H-6,9-epiminocyclohepta[c]pyridine-10-carboxamide] | < 500 nM |
| O=C(Nc1ccc(Oc2ccccc2)nc1)N1C2CCC1c1ccnc(F)c1C2 (racemic) [Compound 8, (±)-1-fluoro-N-(6-phenoxypyridin-3-yl)-6,7,8,9-tetrahydro-5H-5,8-epiminocyclohepta-[c]pyridine-10-carboxamide] | 500 to 5000 nM |
| O=C(Nc1cc2cn(C(F)F)nc2cn1)N1[C@H]2CC[C@@H]1c1ccnc(F)c1C2 [Compound 27, (5R,8S)-N-(2-(difluoromethyl)-2H-pyrazolo[3,4-c]pyridin-5-yl)-1-fluoro-6,7,8,9-tetrahydro-5H-5,8-epiminocyclohepta[c]pyridine-10-carboxamide] | > 5000 nM |
| O=C(Nc1cnc(-n2nccn2)c(Cl)c1)N1[C@H]2CC[C@@H]1c1ccnc(F)c1C2 [Compound 15, (5R,8S)-N-(5-chloro-6-(2H-1,2,3-triazol-2-yl)pyridin-3-yl)-1-fluoro-6,7,8,9-tetrahydro-5H-5,8-epiminocyclohepta[c]pyridine-10-carboxamide] | 500 to 5000 nM |
| O=C(Nc1nnc(C2CCOCC2)s1)N1[C@H]2CC[C@@H]1c1ccnc(F)c1C2 [Compound 32, (5R,8S)-1-Fluoro-N-(5-(tetrahydro-2H-pyran-4-yl)-1,3,4-thiadiazol-2-yl)-6,7,8,9-tetrahydro-5H-5,8-epiminocyclohepta[c]pyridine-10-carboxamide] | > 5000 nM |
| N#Cc1cc(NC(=O)N2[C@H]3CC[C@@H]2c2ccnc(F)c2C3)no1 [Compound 52, (5R,8S)-N-(5-cyanoisoxazol-3-yl)-1-fluoro-6,7,8,9-tetrahydro-5H-5,8-epiminocyclohepta[c]pyridine-10-carboxamide] | < 500 nM |
